Data on 16 compounds can be found in US10947389B2, “Composition, film, near infrared cut filter, laminate, pattern forming method, solid image pickup element, image display device, infrared sensor, and color filter” (FUJIFILM Corporation, priority 2016, dated 2021).

A short description of data set [1]: Evaluation of absorption maximum and absorbance ratio (500 nm/λmax) in solution. The format is physicochemical. The settings on record: for Absorbance Ratio (500 nm/λmax) / Absorption Maximum (nm): solvent chloroform; for λmax (nm) of Second Near Infrared Absorbing Compound: as listed in Table 58. An excerpt:
In this specification, “having an absorption maximum in a wavelength range of 650 to 1000 nm” denotes having a maximum absorbance in a wavelength range of 650 to 1000 nm in an absorption spectrum of the near infrared absorbing compound in a solution. Examples of a measurement solvent used for the measurement of the absorption spectra of the near infrared absorbing compound in the solution include chloroform, methanol, dimethyl sulfoxide, ethyl acetate, and tetrahydrofuran. In the case of a compound which is soluble in chloroform, chloroform is used as the measurement solvent. In the case of a compound which is not soluble in chloroform, methanol is used. In addition, In the case of a compound which is not soluble in chloroform and methanol, dimethyl sulfoxide is used.
Each of the compounds was dissolved in a measurement solvent shown in the following tables (concentration: 2.5×10^−6 mol/L) to measure an absorption spectrum (optical path length: 10 mm).
In addition, an absorbance ratio (500 nm/λmax) as a value obtained by dividing an absorbance at a wavelength of 500 nm by an absorbance at an absorption maximum was evaluated based on the following criteria.
A: the absorbance ratio (500 nm/λmax) was 0.04 or lower
B: the absorbance ratio (500 nm/λmax) was higher 0.04 and 0.08 or lower
C: the absorbance ratio (500 nm/λmax) was higher than 0.08

Data set [2] can be described thus: Evaluation of solubility in water at 23° C. The settings on record: stirred for 1 hour. The data set is classed as physicochemical. As to the method: Each of the compounds was added to water at 23° C. under the atmospheric pressure, the components were stirred for 1 hour, and the solubility of the compound in water was obtained. The solubility of the compound was evaluated based on the following criteria.
A: the solubility in water at 23° C. was 0.1 mass % or lower
B: the solubility in water at 23° C. was higher than 0.1 mass % and 1 mass % or lower
C: the solubility in water at 23° C. was higher than 1 mass %

As for `Cc1ccc2oc(C(C#N)=c3c4c(-c5ccc(OCC(CCCCCCCC(C)C)CCCCCC(C)C)cc5)n(B(c5ccccc5C)c5ccccc5C)c(=C(C#N)c5nc6cc(C)ccc6o5)c4c(-c4ccc(OCC(CCCCCCCC(C)C)CCCCCC(C)C)cc4)n3B(c3ccccc3C)c3ccccc3C)nc2c1` (stereo not drawn) [II-201], in data set [1], the “Absorbance Ratio (500 nm/λmax)” value is listed as “A (the absorbance ratio (500 nm/λmax) was 0.04 or lower)” and the “Absorption Maximum (nm)” value turned out to be 737 nm. Further, the Solubility result in data set [2] was “A (the solubility in water at 23 °C was 0.1 mass % or lower)”.

For `Cc1ccc2oc(/C(C#N)=c3/c4c(-c5ccc(OCC(CCC(C)CC(C)(C)C)C(C)CC(C)(C)C)cc5)n(B(c5ccccc5C)c5ccccc5C)/c(=C(/C#N)c5nc6cc(C)ccc6o5)c4c(-c4ccc(OCC(CCC(C)CC(C)(C)C)C(C)CC(C)(C)C)cc4)n3B(c3ccccc3C)c3ccccc3C)nc2c1` (stereo not drawn) [II-202], in data set [1], the “Absorbance Ratio (500 nm/λmax)” value is “A (the absorbance ratio (500 nm/λmax) was 0.04 or lower)” and the “Absorption Maximum (nm)” value amounted to 737 nm. The Solubility result in data set [2] was “A (the solubility in water at 23 °C was 0.1 mass % or lower)”.

As for `Cc1ccc2c(c1)OB(n1c(-c3cccc(OCC(CCC(C)CC(C)(C)C)C(C)CC(C)(C)C)c3)c3/c(=C(\C#N)c4nc5cc(C)ccc5o4)n(B4Oc5ccc(C)cc5O4)c(-c4cccc(OCC(CCC(C)CC(C)(C)C)C(C)CC(C)(C)C)c4)c3/c1=C(\C#N)c1nc3cc(C)ccc3o1)O2` (stereo not drawn) [II-269], in data set [1], the “λmax (nm) of Second Near Infrared Absorbing Compound” value (“λmax (nm)” for short) came out at 685 nm, the “Absorbance Ratio (500 nm/λmax)” value was “A (the absorbance ratio (500 nm/λmax) was 0.04 or lower)” and the “Absorption Maximum (nm)” value is 685 nm. Besides, the Solubility result in data set [2] was “A (the solubility in water at 23 °C was 0.1 mass % or lower)”.

As to `Cc1ccc2oc(C(C#N)=c3c4c(-c5cccc(OCC(CCCCCCCC(C)C)CCCCCC(C)C)c5)n(B5Oc6cc7ccccc7cc6O5)c(=C(C#N)c5nc6cc(C)ccc6o5)c4c(-c4cccc(OCC(CCCCCCCC(C)C)CCCCCC(C)C)c4)n3B3Oc4cc5ccccc5cc4O3)nc2c1` (stereo not drawn) [II-274], in data set [1], the “λmax (nm)” value came out at 685 nm, the “Absorbance Ratio (500 nm/λmax)” value was “A (the absorbance ratio (500 nm/λmax) was 0.04 or lower)” and the “Absorption Maximum (nm)” value is given as 685 nm. In addition, the Solubility result in data set [2] was “A (the solubility in water at 23 °C was 0.1 mass % or lower)”.

Regarding `Cc1ccc2oc(/C(C#N)=c3/c4c(-c5cccc(OCC(CCC(C)CC(C)(C)C)C(C)CC(C)(C)C)c5)n(B5Oc6cc7ccccc7cc6O5)/c(=C(/C#N)c5nc6cc(C)ccc6o5)c4c(-c4cccc(OCC(CCC(C)CC(C)(C)C)C(C)CC(C)(C)C)c4)n3B3Oc4cc5ccccc5cc4O3)nc2c1` (stereo not drawn) [II-275], in data set [1], the “λmax (nm)” value worked out at 685 nm, the “Absorbance Ratio (500 nm/λmax)” value is reported as “A (the absorbance ratio (500 nm/λmax) was 0.04 or lower)” and the “Absorption Maximum (nm)” value is listed as 685 nm. Besides, the Solubility entry in data set [2] is “A (the solubility in water at 23 °C was 0.1 mass % or lower)”.

With `CC(C)CCCCCCCC(CCCCCC(C)C)COc1ccc(-c2c3c(=C(C#N)c4nc5cc(Cl)ccc5o4)n(B(c4ccccc4)c4ccccc4)c(-c4ccc(OCC(CCCCCCCC(C)C)CCCCCC(C)C)cc4)c3c(=C(C#N)c3nc4cc(Cl)ccc4o3)n2B(c2ccccc2)c2ccccc2)cc1` (stereo not drawn) [II-325], in data set [1], the “Absorbance Ratio (500 nm/λmax)” value was “A (the absorbance ratio (500 nm/λmax) was 0.04 or lower)” and the “Absorption Maximum (nm)” value was found to be 738 nm. The Solubility result in data set [2] is “A (the solubility in water at 23 °C was 0.1 mass % or lower)”.

On to `CC(CCC(COc1cccc(-c2c3/c(=C(\C#N)c4nc5cc(Cl)ccc5o4)n(B4Oc5ccccc5O4)c(-c4cccc(OCC(CCC(C)CC(C)(C)C)C(C)CC(C)(C)C)c4)c3/c(=C(\C#N)c3nc4cc(Cl)ccc4o3)n2B2Oc3ccccc3O2)c1)C(C)CC(C)(C)C)CC(C)(C)C` (stereo not drawn) [II-408], for which, in data set [1], the “λmax (nm)” value is reported as 680 nm, the “Absorbance Ratio (500 nm/λmax)” value is listed as “A (the absorbance ratio (500 nm/λmax) was 0.04 or lower)” and the “Absorption Maximum (nm)” value was 680 nm. Moreover, in data set [2], the Solubility result was “A (the solubility in water at 23 °C was 0.1 mass % or lower)”.

Take `CC(C)CCCCCCCC(CCCCCC(C)C)COc1ccc(-c2c3c(=C(C#N)c4nc5ccccc5s4)n(B(c4ccccc4)c4ccccc4)c(-c4ccc(OCC(CCCCCCCC(C)C)CCCCCC(C)C)cc4)c3c(=C(C#N)c3nc4ccccc4s3)n2B(c2ccccc2)c2ccccc2)cc1` (stereo not drawn) [II-507]: in data set [1], the “Absorbance Ratio (500 nm/λmax)” value is “A (the absorbance ratio (500 nm/λmax) was 0.04 or lower)” and the “Absorption Maximum (nm)” value came to 780 nm. Further, the Solubility result in data set [2] is “A (the solubility in water at 23 °C was 0.1 mass % or lower)”.

On to `CC(CCC(COc1ccc(-c2c3c(=C(C#N)c4nc5ccccc5s4)n(B(c4ccccc4)c4ccccc4)c(-c4ccc(OCC(CCC(C)CC(C)(C)C)C(C)CC(C)(C)C)cc4)c3c(=C(C#N)c3nc4ccccc4s3)n2B(c2ccccc2)c2ccccc2)cc1)C(C)CC(C)(C)C)CC(C)(C)C` (stereo not drawn) [II-508], for which, in data set [1], the “Absorbance Ratio (500 nm/λmax)” value is listed as “A (the absorbance ratio (500 nm/λmax) was 0.04 or lower)” and the “Absorption Maximum (nm)” value is given as 780 nm. Besides, the Solubility result in data set [2] is “A (the solubility in water at 23 °C was 0.1 mass % or lower)”.

In the case of `N#CC(c1nc2ccccc2s1)=c1c2c(-c3ccc(O)cc3)n(B(c3ccccc3)c3ccccc3)c(=C(C#N)c3nc4ccccc4s3)c2c(-c2ccc(O)cc2)n1B(c1ccccc1)c1ccccc1` [II-524], in data set [1], the “Absorbance Ratio (500 nm/λmax)” value is on record as “A (the absorbance ratio (500 nm/λmax) was 0.04 or lower)” and the “Absorption Maximum (nm)” value came to 779 nm. Besides, in data set [2], the Solubility result is “A (the solubility in water at 23 °C was 0.1 mass % or lower)”.

As for `CC(C)CCCCCCCC(CCCCCC(C)C)COc1cccc(-c2c3c(=C(C#N)c4nc5ccccc5s4)n(B(c4ccccc4)c4ccccc4)c(-c4cccc(OCC(CCCCCCCC(C)C)CCCCCC(C)C)c4)c3c(=C(C#N)c3nc4ccccc4s3)n2B(c2ccccc2)c2ccccc2)c1` (stereo not drawn) [II-525], in data set [1], the “Absorbance Ratio (500 nm/λmax)” value was “A (the absorbance ratio (500 nm/λmax) was 0.04 or lower)” and the “Absorption Maximum (nm)” value amounted to 783 nm. The Solubility entry in data set [2] is “A (the solubility in water at 23 °C was 0.1 mass % or lower)”.

Consider `Cc1ccccc1B(c1ccccc1C)n1c(-c2ccc(OCC(CCCCCCCC(C)C)CCCCCC(C)C)cc2)c2c(=C(C#N)c3nc4ccccc4s3)n(B(c3ccccc3C)c3ccccc3C)c(-c3ccc(OCC(CCCCCCCC(C)C)CCCCCC(C)C)cc3)c2c1=C(C#N)c1nc2ccccc2s1` (stereo not drawn) [II-541], for which, in data set [1], the “Absorbance Ratio (500 nm/λmax)” value was “A (the absorbance ratio (500 nm/λmax) was 0.04 or lower)” and the “Absorption Maximum (nm)” value worked out at 772 nm. For the same compound, in data set [2], the Solubility result is “A (the solubility in water at 23 °C was 0.1 mass % or lower)”.

As to `CC(C)CCCCCCCC(CCCCCC(C)C)COc1cccc(-c2c3c(=C(C#N)c4nc5ccccc5s4)n(B4Oc5ccccc5O4)c(-c4cccc(OCC(CCCCCCCC(C)C)CCCCCC(C)C)c4)c3c(=C(C#N)c3nc4ccccc4s3)n2B2Oc3ccccc3O2)c1` (stereo not drawn) [II-589], in data set [1], the “λmax (nm)” value was 719 nm, the “Absorbance Ratio (500 nm/λmax)” value is reported as “A (the absorbance ratio (500 nm/λmax) was 0.04 or lower)” and the “Absorption Maximum (nm)” value came to 719 nm. For the same compound, the Solubility result in data set [2] is “A (the solubility in water at 23 °C was 0.1 mass % or lower)”.

Regarding `CC(CCC(COc1cccc(-c2c3/c(=C(\C#N)c4nc5ccccc5s4)n(B4Oc5ccccc5O4)c(-c4cccc(OCC(CCC(C)CC(C)(C)C)C(C)CC(C)(C)C)c4)c3/c(=C(\C#N)c3nc4ccccc4s3)n2B2Oc3ccccc3O2)c1)C(C)CC(C)(C)C)CC(C)(C)C` (stereo not drawn) [II-590], in data set [1], the “λmax (nm)” value turned out to be 719 nm, the “Absorbance Ratio (500 nm/λmax)” value was “A (the absorbance ratio (500 nm/λmax) was 0.04 or lower)” and the “Absorption Maximum (nm)” value was determined as 719 nm. For the same compound, the Solubility entry in data set [2] is “A (the solubility in water at 23 °C was 0.1 mass % or lower)”.

Turning to `COc1ccc2sc(C(C#N)=c3c4c(-c5ccc(OCC(CCCCCCCC(C)C)CCCCCC(C)C)cc5)n(B(c5ccccc5)c5ccccc5)c(=C(C#N)c5nc6cc(OC)ccc6s5)c4c(-c4ccc(OCC(CCCCCCCC(C)C)CCCCCC(C)C)cc4)n3B(c3ccccc3)c3ccccc3)nc2c1` (stereo not drawn) [II-673], in data set [1], the “Absorbance Ratio (500 nm/λmax)” value is “A (the absorbance ratio (500 nm/λmax) was 0.04 or lower)” and the “Absorption Maximum (nm)” value came out at 794 nm. Besides, the Solubility result in data set [2] was “A (the solubility in water at 23 °C was 0.1 mass % or lower)”.

As to `CC(C)CCCCCCCC(CCCCCC(C)C)COc1ccc(-c2c3c(=C(C#N)c4nc5ccccc5n4C)n(B(c4ccccc4)c4ccccc4)c(-c4ccc(OCC(CCCCCCCC(C)C)CCCCCC(C)C)cc4)c3c(=C(C#N)c3nc4ccccc4n3C)n2B(c2ccccc2)c2ccccc2)cc1` (stereo not drawn) [II-697], in data set [1], the “Absorbance Ratio (500 nm/λmax)” value is on record as “A (the absorbance ratio (500 nm/λmax) was 0.04 or lower)” and the “Absorption Maximum (nm)” value is recorded as 743 nm. For the same compound, the Solubility entry in data set [2] was “A (the solubility in water at 23 °C was 0.1 mass % or lower)”.
